Test results: patent US20260256756A1, “USE OF PIPERIDINE ALKENE COMPOUND IN PREPARATION OF DRUG FOR TREATING CANCER” (JIANGSU HANSOH PHARMACEUTICAL GROUP CO., LTD., priority 2023, published 2026)
Each block holds one molecule with its values, some of them ahead of it.

What was measured:
[1] = system: human ovarian cancer OV-10-0060 xenograft tumor; experiment: Subcutaneous xenograft tumor model of human ovarian cancer OV-10-0060; type: in vivo, BALB/c nude mice
Excerpt: • 1. Experimental objective: To evaluate the in vivo efficacy of the compound in a subcutaneous xenograft tumor model of human ovarian cancer OV-10-0060 in nude mice. • 2. Reagent • HPMC (A1921068, Shanghai Aladdin Biochemical Technology Co., Ltd.), DMEM medium (11995-065, Gibco) • 3. Experimental operations and data processing • 3.1 Animals: BALB/c nude mice, 6-8 weeks old, female, purchased from the Laboratory Animal Business Department of Shanghai Institute of Planned Parenthood Research. • 3.2 Animal modeling • Tumor tissues were harvested from ovarian cancer xenograft model OV-10-0060 tumor-bearing mice and cut into tumor fragments with a diameter of 2-3 mm, which were subcutaneously inoculated into the right anterior scapula region of BALB/c nude mice. • 3.3 Tumor measurement and grouping in tumor-bearing mice • Prior to drug administration, all animals were weighed, and tumor volumes were measured using a vernier caliper. The tumor volume was calculated as: tumor volume (mm^3)=length (mm)×width (mm)×width (mm)/2. According to the body weight of tumor-bearing mice and the size of the tumor, the mice were grouped by random grouping. • 3.4 Administration in tumor-bearing mice • According to the grouping results, the test drug was started to be administered (administration method: oral administration; administration volume: 10 mL/kg; administration frequency: once/day; administration cycle: 28 days; vehicle: 0.5% HPMC). Tumor measurement and weighing were performed twice a week after starting administration of test drugs. The animals were euthanized at the end of the experiment. • 3.5 Data processing • Data processing was performed using software such as GraphPad Prism. The tumor inhibitory efficacy of the compound was evaluated by TGI (%) and ΔT/ΔC (%). ΔT/ΔC (%)=(T−T0)/(C−C0)×100, where T and C are the tumor volumes of the treatment group and the vehicle control group at the end of the experiment, respectively, and T0 and C0 are the tumor volumes of the treatment group and the vehicle control group at the beginning of the experiment, respectively. Tumor growth inhibition (TGI) (%)=100−ΔT/ΔC (%). Tumor growth inhibition (TGI) (%)=100−(T−T0)/T0×100 when tumor regression occurs • 4. Experimental results and conclusions

PSN-1 cells = experiment: In vitro proliferation inhibition (CellTiter-Glo), PSN-1; type: cell-based; conditions: Homo sapiens, PSN1; PSN-1, pancreatic cancer, HRD-positive (low expression of MRE11A/CHEK2 protein); 6-10 days culture
Excerpt: […]
(§1) Experimental data processing method: The luminescence signal value was used to calculate the inhibition rate. […]

[2] = system: BRCA2 Knockout DLD-1 cells; experiment: In vitro proliferation inhibition (CellTiter-Glo), BRCA2 Knockout DLD-1; type: cell-based; conditions: Homo sapiens; DLD-1, colorectal cancer, BRCA2 deletion; 6-10 days culture
Excerpt: […]
as §1

[3] = OV-10-0060, 100 mg/kg oral once/day, Day 27
[4] = OV-10-0060, 10 mg/kg oral once/day, Day 27

IC50 [2]: 160 ± 66 nM
SMILES: O=C(c1cc(Cc2n[nH]c(=O)c3ccccc23)ccc1F)N1CCN(C(=O)C2CC2)CC1 [Olaparib]
Tumor volume (Mean ± SEM) ([1]; OV-10-0060, 100 mg/kg oral once/day, Day 0): 124 ± 4 mm^3 | T/C [1, 3]: 79.24% | TGI [1, 3]: 22.00% | Tumor volume (Mean ± SEM) [1, 3]: 1,787 ± 158 mm^3 | IC50 (PSN-1 cells): 65 ± 19 nM

IC50 [2]: 2.6 ± 0.6 nM
SMILES: CCc1cc2ncc(CN3CCN(c4ccc(C(=O)NC)nc4)CC3)cc2[nH]c1=O [AZD5305]
Tumor volume (Mean ± SEM) ([1]; OV-10-0060, 10 mg/kg oral once/day, Day 0): 124 ± 4 mm^3 | T/C [1, 4]: 61.08% | TGI [1, 4]: 41.19% | Tumor volume (Mean ± SEM) [1, 4]: 1,378 ± 99 mm^3 | IC50 (PSN-1 cells): 2.1 ± 0.5 nM
